Where two headings read alike, the source gives them in different places.
Experiments:
[1] = system: Spodoptera litura 2nd-instar larvae; assay: Insecticidal test on Spodoptera litura (cabbage leaf dip); settings: foliar, 192 h, 8 days after inoculation, read-out: activity level (corrected mortality rate), Spodoptera litura
Procedure: Example 11: Insecticidal Test on Spodoptera litura
The compounds of formula (I) of the present invention or salts thereof were separately dispersed in water and diluted to 500 ppm. Cabbage leaves were dipped in the dispersion for about 30 seconds. After air dried, the leaves were placed in a plastic Petri dish with a diameter of 9 cm and inoculated with ten 2nd-instar larvae of Spodoptera litura, after which the dish was closed and then allowed to stand in a room at 25° C. 8 days after the inoculation, the numbers of the dead and alive insects were counted. The corrected mortality rate was calculated according to the following formula and the insecticidal activity was evaluated according to the following criteria. Corrected mortality rate (%)=100×(Survival rate in an untreated plot−Survival rate in a treated plot)/Survival rate in an untreated plot • A: the corrected mortality rate is 100% • B: the corrected mortality rate is 90 to 99% • C: the corrected mortality rate is 80 to 89% • D: the corrected mortality rate is 50 to 79%

[2] = system: Laodelphax striatellus 3rd-instar nymphs; assay: Insecticidal test on Laodelphax striatellus (rice seedling dip); settings: 192 h, 500 ppm, seedling dip, 8 days after inoculation, read-out: activity level (corrected mortality rate), Laodelphax striatellus
Procedure: Example 13: Insecticidal Test on Laodelphax striatellus
The compounds of formula (I) of the present invention or salts thereof were separately dispersed in water and diluted to 500 ppm. Rice plant seedlings were dipped in the dispersion for about 30 seconds. After air dried, the seedlings were put into a separate glass test tube and inoculated with ten 3rd-instar nymphs of Laodelphax striatellus and then the glass test tube was kept in a room at 25° C. 8 days after the inoculation, the numbers of the dead and alive insects were counted. The corrected mortality rate was calculated according to the following formula and the insecticidal activity was evaluated according to the following criteria. Corrected mortality rate (%)=100×(Survival rate in an untreated plot−Survival rate in a treated plot)/Survival rate in an untreated plot • A: the corrected mortality rate is 100% • B: the corrected mortality rate is 90 to 99% • C: the corrected mortality rate is 80 to 89% • D: the corrected mortality rate is 50 to 79%

Aedes aegypti L1 larvae = assay: Activity against larvae of Aedes aegypti (L1 larvae, 384-well, image-based mortality); settings: read-out: EC50 (percentage of mortality, A. aegypti L1 larvae)
Procedure: Example 3: Screening Method to Test Activity of Compounds of Formula (I) Against Larvae of Aedes aegypti
Eight A. aegypti L1 larvae in a total volume of 64 μL water were added to 384-well microplates containing compounds formulated in 100% DMSO. The plates were incubated for 48 h at 27° C. Individual well images were acquired and analyzed using a pipeline to quantitatively assess the amount of larvae biomass accumulating at the bottom of the well. The efficacy of a compound at a given dose is expressed as “percentage of mortality” and determined by comparison to average biomass descriptors of positive and negative control wells containing 1.0 μM Fipronil or DMSO only, respectively. Dose response assay were conducted to determine an EC50 value.

Myzus persicae = assay: Insecticidal test on Myzus persicae (foliar application on potted Chinese cabbage); settings: 144 h, read-out: control efficacy level (control rate), Myzus persicae
Excerpt: Example 14: Insecticidal Test on Myzus persicae
The compounds of formula (I) of the present invention or salts thereof were separately dispersed in water and diluted to 500 ppm. Chinese cabbage plants were planted in plastic pots (diameter: 8 cm, height: 8 cm). Aphids (Myzus persicae) were propagated on the plants and then the number of surviving aphids was counted. The dispersion was applied to the foliage of the potted plants. After the plants were air dried, these were kept in a greenhouse. 6 days after the application, the number of the alive insects was counted on the plants. The control rate was calculated according to the following formula and the control efficacy was evaluated according to the following criteria. Control rate (%)=100−{(T×Ca)/(Ta×C)}×100 • Ta: the number of alive insects before the foliar application in a treated plot • T: the number of alive insects after the foliar application in a treated plot • Ca: the number of alive insects before the foliar application in an untreated plot • C: the number of alive insects after the foliar application in an untreated plot • A: the control rate is 100% • B: the control rate is 90 to 99% • C: the control rate is 80 to 89% • D: the control rate is 50 to 79%

Plutella xylostella = assay: Insecticidal test on Plutella xylostella (Chinese cabbage seedling dip); settings: 144 h, 500 ppm, seedling dip, 6 days after dip treatment, read-out: activity level (corrected mortality rate), Plutella xylostella
How it was run: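 Compounds dispersed in water at 500 ppm; Chinese cabbage seedlings bearing eggs laid by released adults over 2 days were dipped ~30 s, air-dried and kept at 25° C. Dead and live insects counted 6 days later; corrected mortality versus untreated plot scored A (100%), B (90–99%), C (80–89%), D (50–79%).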

[3] = system: adult Ctenocephalides felis fleas; assay: Contact activity against adult Ctenocephalides felis (treated surface, motility by machine vision, 24 h); settings: treated surface, 24h, read-out: EC80 (% motility reduction, adult C. felis, contact)
Excerpt: Example 7: Screening Method to Test Contact Activity of Compounds of Formula (I) Against Adult Ctenocephalides felis

[4] = system: adult Ctenocephalides felis fleas; assay: Ingestion activity (flea membrane feeding, blood feeding) against adult Ctenocephalides felis; settings: Ctenocephalides felis
[5] = system: adult Rhipicephalus sanguineus ticks; assay: Contact activity against adult Rhipicephalus sanguineus (coated vial, mortality at 48 h); settings: Rhipicephalus sanguineus
How it was run: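 Compound in acetone/0.02% Triton X-100 coated onto glass vial walls and cap filter paper; after drying, ten adult ticks added per vial. Held at 24° C, 95% relative humidity, 12 h light/dark cycle. Mortality scored visually at 48 hours; EC50 derived from a dose-response series.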

[6] = system: nymphs of Dermacentor variabilis ticks; assay: Oral rat-tick efficacy against nymphs of Dermacentor variabilis ticks; assay type: in vivo; settings: rats, oral gavage 10 mg/kg on Day 0, tick count on Day 3
Procedure: Example 10: Comparison of Oral Rat-Tick Efficacy Data for Selected Specific Compounds of Formula (I) Against Nymphs of Dermacentor variabilis Ticks
On Day −1, rats were sedated, fitted with an Elizabethan collar, and infested with approximately 35 nymphal stage D. variabilis ticks. On Day 0, each rat was treated via oral gavage with the appropriate formulation of placebo, positive control, or test compound at the appropriate dose. On Day 3, all rats were euthanized, and ticks were removed, counted, and disposed of. In Table 2 efficacy is expressed in % mortality compared to negative controls containing compound vehicle only.

[7] = 500 ppm, foliar application, 6 days after application
[8] = bovine blood, 24h post treatment, read-out: EC80 (% motility reduction, adult C. felis, ingestion via membrane feeding)
[9] = 24 h, flea membrane feeding (ingestion, blood feeding) assay, EC80, read-out: C. felis membrane feeding (ingestion/blood feeding) activity EC80
[10] = 48 hours post-treatment, coated vial, read-out: EC50 (percentage mortality, adult R. sanguineus, contact)
[11] = contact assay, >100 μM = not active at the top concentration, read-out: R. sanguineus contact activity EC50

Compound | mortality at 500 ppm [1] [%] | mortality at 500 ppm [2] [%] | EC50 (Aedes aegypti L1 larvae; 48 h) [µM] | pest or weed control at 500 ppm (Myzus persicae; foliar) [%] | mortality at 500 ppm (Plutella xylostella) [%] | EC50 (Aedes aegypti L1 larvae; 48 h at 27° C., 384-well) [µM] | pest or weed control at 500 ppm (Myzus persicae; [7]) [%] | EC80 [3] [µM] | EC80 [4, 8] [µM] | EC80 [4, 9] [µM] | EC50 [5, 10] [µM] | EC50 [5, 11] [µM] | EC80 ([4]; 24 h, read-out: EC80 (% motility reduction, adult C. felis, ingestion via membrane feeding)) [µM] | EC50 ([5]; 48 h, read-out: EC50 (percentage mortality, adult R. sanguineus, contact)) [µM] | Observed efficacy (% mortality compared to negative controls) [6] [%]
CCS(=O)(=O)c1cc(-c2cccc(C3CC3)n2)cnc1-c1nc2cc(C(F)(F)C(F)(F)F)nnc2n1C [Compound 3, 6-cyclopropyl-5′-(ethanesulfonyl)-6′-[7-methyl-3-(1,1,2,2,2-pentafluoroethyl)imidazo[4,5-c]pyridazin-6-yl]-2,3′-bipyridine] | 100 | 100 | < 0.04 | 100 | 100 | – | – | – | – | – | – | – | – | – | –
CCS(=O)(=O)c1cc(-c2ccc(C3CC3)cc2)cnc1-c1nc2cc(C(F)(F)F)cnc2n1C [Compound 41, 5-(4-cyclopropylphenyl)-3-(ethanesulfonyl)-2-[3-methyl-6-(trifluoromethyl)imidazo[4,5-b]pyridin-2-yl]pyridine] | 100 | 100 | – | – | 100 | < 0.04 | 100 | 1 to 10 | – | – | – | – | – | – | –
CCS(=O)(=O)c1cc(-c2ccc(C3CC3)cc2)cnc1-c1nc2cc(S(=O)(=O)C(F)(F)F)ccc2n1C [Compound 42, 2-[5-(4-cyclopropylphenyl)-3-(ethanesulfonyl)pyridin-2-yl]-1-methyl-5-trifluoromethanesulfonyl-1,3-benzodiazole] | 100 | – | – | – | 100 | < 0.04 | – | 1 to 10 | 1 to 10 | – | – | – | – | – | –
CCS(=O)(=O)c1cc(-c2ccc(C3CC3)cc2)cnc1-c1nc2cc([S+]([O-])C(F)(F)F)ccc2n1C (stereo not drawn) [Compound 43, 2-[5-(4-cyclopropylphenyl)-3-(ethanesulfonyl)pyridin-2-yl]-1-methyl-5-trifluoromethanesulfinyl-1,3-benzodiazole] | 100 | – | – | – | 100 | < 0.04 | 100 | 1 to 10 | 1 to 10 | – | – | – | – | – | –
CCS(=O)(=O)c1cc(-c2ccc(C3CC3)cc2)cnc1-c1nc2cc(C(F)(F)F)n(C3CC3)c(=O)c2n1C [Compound 45, 5-cyclopropyl-2-[5-(4-cyclopropylphenyl)-3-(ethanesulfonyl)pyridin-2-yl]-3-methyl-6-(trifluoromethyl)imidazo[4,5-c]pyridin-4-one] | 100 | 100 | – | – | 100 | < 0.04 | 100 | – | 1 to 10 | 1 to 10 | < 10 | < 10 | – | – | –
CCS(=O)(=O)c1cc(-c2ccc(C3CC3)cc2)cnc1-c1cc2n(CC3CC3)cc(C(F)(F)F)cc-2n1 [Compound 96, 2-[4-(cyclopropylmethyl)-6-(trifluoromethyl)pyrrolo[3,2-b]pyridin-2-yl]-5-(4-cyclopropylphenyl)-3-(ethanesulfonyl)pyridine] | 100 | 100 | – | – | 100 | – | 100 | – | – | 1 to 10 | < 10 | 10 to 100 | – | – | –
CCS(=O)(=O)c1cc(-c2ccc(C3(C#N)CC3)cc2)cnc1-c1nc2cc(C(F)(F)C(F)(F)F)ncc2n1C [Compound 115, 1-[4-[5-(ethanesulfonyl)-6-[3-methyl-6-(1,1,2,2,2-pentafluoroethyl)imidazo[4,5-c]pyridin-2-yl]pyridin-3-yl]phenyl]cyclopropane-1-carbonitrile] | 100 | 100 | – | – | 100 | < 0.04 | 100 | < 1 | < 1 | < 1 | 10 to 100 | 10 to 100 | – | – | –
CCS(=O)(=O)c1cc(-c2cc(C3CC3)ccn2)cnc1-c1nc2cc(C(F)(F)C(F)(F)F)cnc2n1C [Compound 182, 4-cyclopropyl-5′-(ethanesulfonyl)-6′-[3-methyl-6-(1,1,2,2,2-pentafluoroethyl)-3H-imidazo[4,5-b]pyridin-2-yl]-2,3′-bipyridine] | 100 | 100 | – | 100 | 100 | – | – | – | – | – | – | – | < 1 | 10 to 100 | –
CCS(=O)(=O)c1cc(-c2ccc(C3CC3)cc2)cnc1-c1nc2cc(C(C)(F)F)cnc2n1C [Compound 194, 5-(4-cyclopropylphenyl)-2-[6-(1,1-difluoroethyl)-3-methylimidazo[4,5-b]pyridin-2-yl]-3-(ethanesulfonyl)pyridine] | 100 | 100 | – | – | 100 | – | 100 | – | – | – | 10 to 100 | – | – | – | –
CCS(=O)(=O)c1cc(-c2ccc(C3(C#N)CC3)cc2)cnc1-c1nc2cc(C(F)(F)F)cn(CC(F)F)c-2c1F [compound 67] | – | – | – | – | – | – | – | – | – | – | – | – | – | – | >95
CCS(=O)(=O)c1cc(-c2cccc(C3CC3)n2)cnc1-c1nc2cc(C(F)(F)C(F)(F)F)cnc2n1C [compound 112] | 100 | – | – | – | 100 | < 0.04 | 100 | < 1 | 1 to 10 | 1 to 10 | 10 to 100 | 10 to 100 | – | – | –
CCS(=O)(=O)c1cc(-c2ccc(C3(C#N)CC3)cc2)cnc1-c1ccc(OCC(F)(F)C(F)(F)F)cn1 [compound 128] | 100 | 100 | – | – | 100 | – | 100 | 1 to 10 | – | – | < 10 | – | – | – | –

Source: US12435083B2, “Cyclopropyl-(hetero)aryl-substituted ethylsulphonyl-pyridine derivatives” (BOEHRINGER INGELHEIM VETMEDICA GMBH, priority 2021, dated 2025)
